Results reported in US6630469B2, “5-HT7 receptor antagonists” (Bristol-Myers Squibb Company, priority 2000, dated 2003).
Where a name gives a salt, the structure may show the parent alone.

Columns and labels:
human 5-HT7 receptor = target: T1, human 5-HT7 receptor (Homo sapiens, UniProt P34969); test: 5-HT7 Receptor Binding Assay; conditions: membranes of CHO cells expressing human 5-HT7 receptor; 1 nM 3H-5-carboxamidotryptamine; 25° C., 60 minutes
T1 construct: expressed in transfected cells; host or cells: CHO cells
T1 sequence (P34969 whole entry): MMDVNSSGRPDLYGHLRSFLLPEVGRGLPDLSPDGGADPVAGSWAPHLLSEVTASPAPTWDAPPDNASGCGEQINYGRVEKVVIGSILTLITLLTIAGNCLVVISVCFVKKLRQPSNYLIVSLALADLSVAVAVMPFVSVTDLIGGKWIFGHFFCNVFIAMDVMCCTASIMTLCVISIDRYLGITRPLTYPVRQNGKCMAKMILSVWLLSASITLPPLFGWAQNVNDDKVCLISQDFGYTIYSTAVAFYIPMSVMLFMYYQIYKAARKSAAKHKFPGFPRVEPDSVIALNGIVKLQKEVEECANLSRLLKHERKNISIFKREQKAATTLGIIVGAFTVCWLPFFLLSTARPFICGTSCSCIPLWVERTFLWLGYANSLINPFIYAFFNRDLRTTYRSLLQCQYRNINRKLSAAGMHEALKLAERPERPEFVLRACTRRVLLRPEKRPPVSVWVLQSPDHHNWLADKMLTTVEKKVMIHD
In short: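 Membranes from CHO cells expressing human 5-HT7, 30 ug protein per well, incubated 60 min at 25° C in 50 mM HEPES with 0.1–1000 nM test compound and 1 nM ^3H-5-carboxamidotryptamine. Non-specific binding with 10 uM serotonin. Filtration and scintillation counting; IC50 by non-linear regression.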

[1] = test system: rat pup isolation-induced ultrasonic vocalization; test: rat pup isolation-induced ultrasonic vocalization test; format: in vivo
Excerpt: The compounds of this invention are useful as antagonists or partial agonists for the treatment of CNS and ocular disorders. […] A compound of this invention has also been assessed in an in vivo model, the rat pup isolation-induced ultrasonic vocalization test. This animal model has proven to be a sensitive and reliable method for detecting anxiolytics and antidepressants across a broad spectrum of pharmacological classes such as benzodiazepines, serotonin reuptake inhibitors, serotonin agonists and NMDA antagonists (Gardner, C.; Drug Devel. Res. 1985, 5,185-193 and Winslow, J.; Insel, T.; Psychopharmacology 1991, 105, 513-520).

| IC50 (human 5-HT7 receptor) [nM] | Structure (SMILES) | further results |
| --- | --- | --- |
| ≤ 50 | C[C@H](Nc1ccnc(NCCOc2ccccc2)n1)c1ccccc1 [N^2-(2-Phenoxyethyl)-N^4-[(1S)-1-phenylethyl]pyrimidine-2,4-diamine] |  |
| ≤ 50 | CC(Nc1ccnc(NCCC2=CCCCC2)n1)c1ccccc1 (stereo not shown) [Compound 23, N^2-[2-(1-Cyclohexenyl)ethyl]-N^4-(1-phenylethyl)pyrimidine-2,4-diamine] |  |
| ≤ 50 | CC(Nc1ccnc(NCCc2ccc(F)cc2)n1)c1ccccc1 (stereo not shown) [N^2-[2-(4-Fluorophenyl)ethyl]-N^4-(1-phenylethyl)pyrimidine-2,4-diamine] |  |
| 101 to 200 | COc1cc(CNc2ccnc(NCCOc3ccccc3)n2)cc(OC)c1 [N^4-(3,5-Dimethoxyphenylmethyl)-N^2-(2-phenoxyethyl)pyrimidine-2,4-diamine] |  |
| ≤ 50 | C[C@H](Nc1nc(N)nc(NC[C@H]2C[C@@H]2c2ccc(F)cc2)n1)c1ccccc1 [(S,S)-trans-N-[2-(4-Fluoro-phenyl)-cyclopropylmethyl]-N′-(1-phenyl-ethyl)-[1,3,5]triazine-2,4,6-triamine] |  |
| ≤ 50 | C[C@H](Nc1nc(N)nc(NCCc2ccc(F)cc2)n1)c1ccccc1 [Compound 64, N^2-[2-(4-Fluorophenyl)ethyl]-N^4-[(1S)-1-phenylethyl]-1,3,5-triazine-2,4,6-triamine] |  |
| ≤ 50 | c1ccc(OCCNc2nccc(NCc3cccs3)n2)cc1 [Compound 18, N^2-(2-Phenoxyethyl)-N^4-(2-thienylmethyl)pyrimidine-2,4-diamine] |  |
| 101 to 200 | Clc1ccc(CNc2ccnc(NCCOc3ccccc3)n2)cc1Cl [N^4-(3,4-Dichlorophenylmethyl)-N^2-(2-phenoxyethyl)pyrimidine-2,4-diamine] |  |
| 101 to 200 | FC(F)(F)c1ccc(CNc2ccnc(NCCOc3ccccc3)n2)cc1 [N^2-(2-Phenoxyethyl)-N^4-[4-(trifluoromethyl)phenylmethyl]pyrimidine-2,4-diamine] |  |
| 51 to 100 | C[C@H](Nc1nc(N)nc(NCCc2cccc(C(F)(F)F)c2)n1)c1ccccc1 [Compound 53, N^2-[(1S)-1-Phenylethyl]-N^4-{2-[3-(trifluoromethyl)phenyl]ethyl}-1,3,5-triazine-2,4,6-triamine] |  |
| 51 to 100 | NC(=O)c1cccc(CNc2ccnc(NCCOc3ccccc3)n2)c1 [Compound 6, N^4-[3-(Aminocarbonyl)phenylmethyl]-N^2-(2-phenoxyethyl)pyrimidine-2,4-diamine] |  |
| 51 to 100 | COc1ccccc1CCNc1nccc(NC(C)c2ccccc2)n1 (stereo not shown) [N^2-[2-(2-Methoxyphenyl)ethyl]-N^4-(1-phenylethyl)pyrimidine-2,4-diamine] |  |

More lines, now with the values behind:

| Structure (SMILES) | IC50 (human 5-HT7 receptor) [nM] | further results |
| --- | --- | --- |
| C[C@H](Nc1nc(N)nc(NCCOc2ccccc2)n1)c1ccccc1 (as salt: TFA) [Compound 41, N^2-[2-(Phenoxy)ethyl]-N^4-[(1S)-1-phenylethyl]-1,3,5-triazine-2,4,6-triamine] |  | melting point: 207 to 208 °C |
| C[C@H](Nc1nc(N)nc(NCCc2ccccn2)n1)c1ccc(F)cc1 (as salt: TFA) [Example 18, N^2-[(1S)-1-(4-Fluorophenyl)ethyl]-N^4-[2-(2-pyridinyl)ethyl]-1,3,5-triazine-2,4,6-triamine] |  | melting point: 161 °C |
| CC(Nc1ccnc(NCCc2ccc(Cl)cc2)n1)c1ccccc1 (stereo not shown) [N^2-[2-(4-Chlorophenyl)ethyl]-N^4-(1-phenylethyl)pyrimidine-2,4-diamine] | 51 to 100 |  |
| CC[C@H](Nc1nc(N)nc(NCCc2ccc(Cl)cc2)n1)c1ccccc1 [Compound 32, N^2-[2-(4-Chlorophenyl)ethyl]-N^4-[(1S)-1-phenylpropyl]-1,3,5-triazine-2,4,6-triamine] | 101 to 200 |  |
| Cc1ccc(CCNc2nc(N)nc(N[C@@H](C)c3ccc([N+](=O)[O-])cc3)n2)cc1 [Compound 79, N^2-[2-(4-Methylphenyl)ethyl]-N^4-[(1S)-1-(4-nitrophenyl)ethyl]-1,3,5-triazine-2,4,6-triamine] | ≤ 50 |  |
| Cc1ccc(CCNc2nc(C)cc(N[C@@H](C)c3ccccc3)n2)cc1 [N^2-[2-(4-Methylphenyl)ethyl]-6-methyl-N^4-[(1S)-1-phenylethyl]pyrimidine-2,4-diamine] | ≤ 50 |  |
| C[C@H](Nc1nc(N)nc(NCCc2ccc(F)cc2)n1)c1ccc(F)cc1 [Example 17, N^2-[(1S)-1-(4-Fluorophenyl)ethyl]-N^4-[2-(4-fluorophenyl)ethyl]-1,3,5-triazine-2,4,6-triamine] | ≤ 50 |  |
| FC(F)(F)c1cccc(CNc2ccnc(NCCOc3ccccc3)n2)c1 [N^2-(2-Phenoxyethyl)-N^4-[3-(trifluoromethyl)phenylmethyl]pyrimidine-2,4-diamine] | ≤ 50 |  |
| CC(Nc1ccnc(NCCCc2ccccc2)n1)c1ccccc1 (stereo not shown) [N^4-(1-Phenylethyl)-N^2-(3-phenylpropyl)pyrimidine-2,4-diamine] | 51 to 100 |  |
| C[C@H](Nc1nc(N)nc(NCCc2cccc(Br)c2)n1)c1ccccc1 [Compound 66, N^2-[2-(3-Bromophenyl)ethyl]-N^4-[(1S)-1-phenylethyl]-1,3,5-triazine-2,4,6-triamine] | ≤ 50 |  |
| CC[C@H](Nc1nc(N)nc(NCCc2ccccc2)n1)c1ccccc1 [Compound 65, N^2-2-Phenylethyl-N^4-[(1S)-1-phenylpropyl]-1,3,5-triazine-2,4,6-triamine] | ≤ 50 |  |
| CC(Nc1ccnc(NCCc2ccccc2F)n1)c1ccccc1 (stereo not shown) [N^2-[2-(2-Fluorophenyl)ethyl]-N^4-(1-phenylethyl)pyrimidine-2,4-diamine] | ≤ 50 |  |
| c1ccc(CCNc2nccc(NCc3ccccc3)n2)cc1 [N^2-(2-Phenylethyl)-N^4-(phenylmethyl)pyrimidine-2,4-diamine] | ≤ 50 |  |
| Clc1ccc(CNc2ccnc(NCCc3ccccc3)n2)c(Cl)c1 [N^4-(2,4-Dichlorophenylmethyl)-N^2-(2-phenylethyl)pyrimidine-2,4-diamine] | 51 to 100 |  |
| CC(=O)Nc1cccc(CCNc2nc(C)cc(N[C@@H](C)c3ccccc3)n2)c1 [N^2-[2-(3-Acetamidophenyl)ethyl]-6-methyl-N^4-[(1S)-1-phenylethyl]pyrimidine-2,4-diamine] | 101 to 200 |  |
| C[C@H](Nc1nc(N)nc(NCCc2ccccc2)n1)c1ccccc1 [Compound 60, N^2-[(1S)-1-Phenylethyl]-N^4-(2-phenylethyl)-1,3,5-triazine-2,4,6-triamine] | ≤ 50 |  |
| c1ccc(CCNc2nccc(NCc3cccc4c3OCO4)n2)cc1 [N^4-(4-Benzodioxolylmethyl)-N^2-(2-phenylethyl)pyrimidine-2,4-diamine] | ≤ 50 |  |
| Cc1ccc(CNc2ccnc(NCCc3ccccc3)n2)cc1Cl [N^4-(3-Chloro-4-methylphenylmethyl)-N^2-(2-phenylethyl)pyrimidine-2,4-diamine] | 101 to 200 |  |
| C[C@H](Nc1cc(NCCc2ccc(O)cc2)ncn1)c1ccccc1 [N^4-[2-(4-Hydroxyphenyl)ethyl]-N^6-[(1S)-1-phenylethyl]pyrimidine-4,6-diamine] | ≤ 50 |  |
| COc1ccc(CNc2ccnc(NCCc3ccccc3)n2)cc1 [N^4-(4-Methoxyphenylmethyl)-N^2-(2-phenylethyl)pyrimidine-2,4-diamine] | ≤ 50 |  |
| c1ccc(OCCNc2nccc(NCc3cccc4c3OCO4)n2)cc1 [N^4-(4-Benzodioxolylmethyl)-N^2-(2-phenoxyethyl)pyrimidine-2,4-diamine] | ≤ 50 |  |
| c1ccc(OCCNc2nccc(NCc3cccc4ccccc34)n2)cc1 [Compound 16, N^4-(1-Napthalenylmethyl)-N^2-(2-phenoxyethyl)pyrimidine-2,4-diamine] | ≤ 50 |  |
| Clc1ccc(CNc2ccnc(NCCOc3ccccc3)n2)cc1 [N^4-(4-Chlorophenylmethyl)-N^2-(2-phenoxyethyl)pyrimidine-2,4-diamine] | ≤ 50 |  |
| COc1ccc(CCNc2nc(C)cc(N[C@@H](C)c3ccccc3)n2)cc1Br [N^2-[2-(3-Bromo-4-methoxyphenyl)ethyl]-6-methyl-N^4-[(1S)-1-phenylethyl]pyrimidine-2,4-diamine] | 51 to 100 |  |
| Cc1ccc([C@H](C)Nc2nc(N)nc(NCCOc3ccccc3)n2)cc1 [N^2-[(1S)-1-(4-Methylphenyl)ethyl]-N^4-(2-phenoxyethyl)-1,3,5-triazine-2,4,6-triamine] |  | amount of compound dosed which reduced the rat pup ultrasonic vocalization by 50% (ID50) [1]: 23.8 mg/kg; locomotor activity at doses suppressing ultrasonic vocalization [1]: did not suppress locomotor activity; supression of rat pup ultrasonic vocalization [1]: dose dependent and significant supression of rat pup ultrasonic vocalization |
| Clc1ccc(CNc2ccnc(NCCc3ccccc3)n2)cc1 [N^4-(4-Chlorophenylmethyl)-N^2-(2-phenylethyl)pyrimidine-2,4-diamine] | ≤ 50 |  |
| Cc1cc(N[C@@H](C)c2ccccc2)nc(NCCc2ccc(Cl)cc2)n1 [N^2-[2-(4-Chlorophenyl)ethyl]-6-methyl-N^4-[(1S)-1-phenylethyl]pyrimidine-2,4-diamine] | ≤ 50 |  |
| COc1ccccc1CCNc1nc(C)cc(N[C@@H](C)c2ccccc2)n1 [N^2-[2-(2-Methoxyphenyl)ethyl]-6-methyl-N^4-[(1S)-1-phenylethyl]pyrimidine-2,4-diamine] | ≤ 50 |  |
| C[C@H](Nc1nc(N)nc(NCCc2cccc(C#N)c2)n1)c1ccccc1 [Compound 55, N^2-[2-(3-Cyanophenyl)ethyl]-N^4-[(1S)-1-phenylethyl]-1,3,5-triazine-2,4,6-triamine] | 51 to 100 |  |
